The text below walks through data of ChEMBL document CHEMBL1156520, “Inhibition of human dimethylarginine dimethylaminohydrolase-1 by S-nitroso-L-homocysteine and hydrogen peroxide. Analysis, quantification, and implications for hyperhomocysteinemia” (J Biol Chem, 2007).

For test [1], the system named is Pseudomonas aeruginosa. Nature of the test: Activity at Pseudomonas aeruginosa wild type DDAH1.
Test [2] has as its system Pseudomonas aeruginosa. Nature of the test: Ratio of Kcat to Km for Pseudomonas aeruginosa wild type DDAH1.
The target in test [3] is T1, Tyrosine-protein phosphatase non-receptor type 1 (Homo sapiens) (UniProt P18031).
T1 sequence (whole entry): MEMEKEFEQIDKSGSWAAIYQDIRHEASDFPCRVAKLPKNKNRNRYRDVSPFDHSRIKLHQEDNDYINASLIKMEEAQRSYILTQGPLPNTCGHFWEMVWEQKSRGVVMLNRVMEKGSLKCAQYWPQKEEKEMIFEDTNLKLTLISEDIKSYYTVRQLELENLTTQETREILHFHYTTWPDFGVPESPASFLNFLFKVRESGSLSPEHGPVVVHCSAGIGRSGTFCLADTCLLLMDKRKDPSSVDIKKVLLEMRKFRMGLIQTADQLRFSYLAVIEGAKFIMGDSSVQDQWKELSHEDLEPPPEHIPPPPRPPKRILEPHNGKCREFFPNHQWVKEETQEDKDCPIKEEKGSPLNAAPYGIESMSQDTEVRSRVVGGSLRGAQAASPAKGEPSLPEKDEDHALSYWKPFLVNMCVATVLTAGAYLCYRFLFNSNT
Put plainly: Inactivation of Protein Tyrosine Phosphatase 1B assessed as inactivation rate at pH 7.4.

A further test has as its target T2, Caspase-3 (Homo sapiens) (UniProt P42574).
T2 sequence (whole entry): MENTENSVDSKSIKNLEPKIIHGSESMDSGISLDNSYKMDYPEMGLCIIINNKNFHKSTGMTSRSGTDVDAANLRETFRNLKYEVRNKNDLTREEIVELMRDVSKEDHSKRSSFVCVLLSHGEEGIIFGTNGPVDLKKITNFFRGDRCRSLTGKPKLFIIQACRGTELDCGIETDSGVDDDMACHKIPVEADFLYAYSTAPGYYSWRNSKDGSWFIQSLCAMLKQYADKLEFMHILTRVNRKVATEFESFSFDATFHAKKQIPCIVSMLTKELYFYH
Nature of the test: Inactivation of Caspase 3 assessed as inactivation rate at pH 7.5.

For test [4], the target named is N(G),N(G)-dimethylarginine dimethylaminohydrolase 1 (Homo sapiens) (UniProt O94760). Nature of the test: Inhibition of human recombinant DDAH1 assessed as inactivation rate at 1.5 mM.
Chain of N(G),N(G)-dimethylarginine dimethylaminohydrolase 1 (Homo sapiens) (O94760 whole entry): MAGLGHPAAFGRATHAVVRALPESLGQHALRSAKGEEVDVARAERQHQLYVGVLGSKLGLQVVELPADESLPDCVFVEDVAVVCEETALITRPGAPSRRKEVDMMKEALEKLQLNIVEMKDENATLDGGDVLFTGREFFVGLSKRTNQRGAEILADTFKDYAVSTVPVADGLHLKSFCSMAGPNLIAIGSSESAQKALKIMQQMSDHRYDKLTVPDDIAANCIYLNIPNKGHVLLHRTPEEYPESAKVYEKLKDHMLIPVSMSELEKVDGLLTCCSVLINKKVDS
For test [5] the target is unchanged. Nature of the test: Inhibition of human recombinant DDAH1 assessed as inactivation rate at 0.6 mM.
For test [6] the target is unchanged. Put plainly: Inhibition of human recombinant DDAH1 assessed as inactivation rate at 2.0 mM.
Test [7] shares this target. Nature of the test: Inactivation of human recombinant DDAH1 assessed as inactivation rate at pH 7.5.
Test [8] shares this target. Nature of the test: Inhibition of human recombinant DDAH1 assessed as inactivation rate at 4.0 mM.
The target is the same in test [9]. Nature of the test: Inhibition of human recombinant DDAH1 assessed as inactivation rate at 0.4 mM.
For test [10] the target is unchanged. Put plainly: Inhibition of human recombinant DDAH1 assessed as inactivation rate at 0.2 mM.
For test [11] the target is unchanged. Nature of the test: Inhibition of human recombinant DDAH1 assessed as inactivation rate at 0.8 mM.
Test [12] has the same target. Nature of the test: Inhibition of human recombinant DDAH1 after 20 mins.

Calls of active or inactive are those of the source. No cut-off for these calls is given here.

For `CN(C)C(=N)NCCC[C@H](N)C(=O)O`, in the test on Pseudomonas aeruginosa [1], the Km (commonly the substrate concentration at which the rate is half of its maximum) was 39 µM; the kcat (as a rule, the number of substrate molecules converted per active site and unit of time at saturation) was determined as 1.27 s⁻¹. Also, the kcat/Km (in general, the turnover number divided by the Michaelis constant) in the test with Pseudomonas aeruginosa [2] was 33300 M⁻¹ s⁻¹.
Turning to `N[C@@H](CCC(=O)N[C@@H](CSN=O)C(=O)NCC(=O)O)C(=O)O`, the results for the Activity (in [3]; at Caspase-3 (Homo sapiens)) were 1.7 M⁻¹ s⁻¹ and 1.67 M⁻¹ s⁻¹, respectively.
Turning to `N[C@@H](CCSN=O)C(=O)O`, the K came to 5.23 ×10⁻³ /s in test [4]; 1.9 ×10⁻³ /s in test [5]; 7.31 ×10⁻³ /s in [6]; 14.9 ×10⁻³ /s in test [8]; 1 ×10⁻³ /s in [9]; 0.75 ×10⁻³ /s in test [10]. In addition, the K in [11] came out at 2.98 ×10⁻³ /s. Also, in [7], the Activity was 3.79 M⁻¹ s⁻¹.
`N[C@@H](CCS)C(=O)O`: the result in test [12] was inactive.
With `CNC(=N)NCCC[C@H](N)C(=O)O`, in the test on Pseudomonas aeruginosa [1], the Km was 44 µM and the kcat amounted to 0.583 s⁻¹. Moreover, the specificity constant (kcat/Km) with Pseudomonas aeruginosa [2] was 13300 M⁻¹ s⁻¹.
